Data published in patent US20250152611A1, “IMMUNOMODULATORY LIPIDS AND USES THEREOF” (President and Fellows of Harvard College, priority 2022, published 2025).

What was measured:
TLR2-TLR1 heterodimers = TLR2-TLR1 heterodimers (Homo sapiens, UniProt O60603+Q15399); assay: Potency comparison of TLR2-TLR1 agonists (EC50); type: cell-based; details: order of magnitude only
[1] = tested on: mouse bone marrow-derived dendritic cells (mBMDCs); assay: mBMDC cytokine assay (wild-type cells; TNFα ELISA, cytometric bead array); type: cell-based; details: overnight, fractions or purified compounds at 50 μg/ml
Excerpt: Previously, to identify immunoregulatory small molecules from gut microbes, an unbiased functional assay was employed using cytokine release from murine bone marrow-derived dendritic cells (mBMDCs) in response to fractionated bacterial extracts (7). Dendritic cells, which are part of the innate immune system, detect pathogen-associated molecules and relay information to the adaptive immune system through the release of cytokines. It was reasoned that the same approach would identify immunomodulatory molecules produced by A. muciniphila.
These assays were done as described previously (21). Femurs and tibias were collected from male or female wild-type, TLR2^−/−, or TLR4^−/− C57BL/6 mice that were at least 3-4 weeks old and preferably 7-12 weeks of age. The bone marrow was pushed from the bones using a needle and syringe of complete Dulbecco's Modified Eagle Medium (DMEM) (supplemented with Gibco GlutaMAX Supplement (35050061), Gibco Penicillin-Streptomycin (15140122), and 10% heat-inactivated fetal bovine serum (FBS)) and strained through a 70 μm nylon filter. […] Cells were counted and then plated at approximately 5 million cells per plate with ˜20-40 ng/ml RmGM-CSF (PreProTech 315-03). […] The resulting bone marrow derived dendritic cells (mBMDCs), were then scraped and counted again. […] Data was collected with NovoExpress 1.4.1 and analyzed using FlowJo v10.7.

TLR2-TLR1 heterodimers, sequence (O60603 21-784): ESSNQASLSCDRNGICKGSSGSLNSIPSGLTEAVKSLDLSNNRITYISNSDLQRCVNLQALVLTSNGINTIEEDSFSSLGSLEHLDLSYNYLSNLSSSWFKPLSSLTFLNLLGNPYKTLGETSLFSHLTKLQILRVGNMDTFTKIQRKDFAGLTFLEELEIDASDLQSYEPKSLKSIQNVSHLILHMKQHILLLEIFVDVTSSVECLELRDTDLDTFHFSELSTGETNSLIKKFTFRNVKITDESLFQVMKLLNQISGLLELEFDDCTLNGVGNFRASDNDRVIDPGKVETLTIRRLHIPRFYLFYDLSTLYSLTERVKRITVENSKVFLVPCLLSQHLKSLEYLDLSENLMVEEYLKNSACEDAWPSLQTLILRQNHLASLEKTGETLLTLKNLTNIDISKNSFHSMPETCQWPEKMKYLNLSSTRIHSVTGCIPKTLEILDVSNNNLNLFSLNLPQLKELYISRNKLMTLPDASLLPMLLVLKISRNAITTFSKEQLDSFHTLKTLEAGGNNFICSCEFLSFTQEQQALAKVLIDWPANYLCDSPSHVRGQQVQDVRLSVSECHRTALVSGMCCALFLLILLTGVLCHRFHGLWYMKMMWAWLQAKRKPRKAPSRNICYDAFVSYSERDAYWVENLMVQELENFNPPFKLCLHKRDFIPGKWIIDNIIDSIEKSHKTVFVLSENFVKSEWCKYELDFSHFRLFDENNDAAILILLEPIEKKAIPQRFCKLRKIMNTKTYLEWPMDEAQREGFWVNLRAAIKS
TLR2-TLR1 heterodimers, sequence (Q15399 25-786): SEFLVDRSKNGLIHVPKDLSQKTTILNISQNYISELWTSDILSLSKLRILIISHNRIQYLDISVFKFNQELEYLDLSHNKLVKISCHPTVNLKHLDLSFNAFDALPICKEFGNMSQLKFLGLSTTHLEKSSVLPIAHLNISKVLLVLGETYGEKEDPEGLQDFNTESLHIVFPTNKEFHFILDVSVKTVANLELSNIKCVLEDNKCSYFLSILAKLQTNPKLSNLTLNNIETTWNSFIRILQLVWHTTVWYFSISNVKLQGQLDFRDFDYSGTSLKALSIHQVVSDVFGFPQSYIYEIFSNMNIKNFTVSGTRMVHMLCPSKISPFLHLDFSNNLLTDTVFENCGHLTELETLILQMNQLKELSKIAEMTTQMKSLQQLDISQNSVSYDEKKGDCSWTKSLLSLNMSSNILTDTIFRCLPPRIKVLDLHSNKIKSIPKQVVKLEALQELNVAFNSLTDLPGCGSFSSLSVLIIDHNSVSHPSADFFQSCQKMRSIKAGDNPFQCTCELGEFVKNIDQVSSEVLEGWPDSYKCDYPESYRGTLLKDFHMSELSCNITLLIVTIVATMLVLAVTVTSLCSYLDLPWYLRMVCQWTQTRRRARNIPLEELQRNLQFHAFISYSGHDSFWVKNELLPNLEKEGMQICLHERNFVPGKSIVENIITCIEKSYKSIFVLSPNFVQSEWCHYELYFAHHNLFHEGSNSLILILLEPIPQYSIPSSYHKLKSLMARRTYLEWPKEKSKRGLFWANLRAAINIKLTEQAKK

EC50 values (TLR2-TLR1 heterodimers)	Compound	TNFα induction/production [1]
μM	CC[C@H](C)CCCCCCCCCCC(=O)OC[C@@H](COP(=O)(O)OCCN)OC(=O)CCCCCCCCCCCC(C)C [a15:0-i15:0 PE, 12-methyltetradecanoyl-13-methyltetradecanoyl-sn-glycero-3-phosphoethanolamine]	–
–	CCCCCCCCCCCCCCCC(=O)OCC(COP(=O)(O)OCCN)OC(=O)CCCCCCCCCCCCCCC (stereo not drawn) [n16:0-n16:0 PE]	no detectable TNFα induction
–	CCCCCCCCCCCCCC(=O)OC[C@H](COP(=O)(O)OCCN)OC(=O)CCCCCCCCCCCCC [n14:0-n14:0 PE]	no detectable TNFα induction
